Results on 43 compounds are retold here after US9776979B2, “EBI2 modulators” (Sanford-Burnham Medical Research Institute, priority 2013, dated 2017).

pIC50: −log10 of the molar value.

EBI2, sequence (P32249 whole entry): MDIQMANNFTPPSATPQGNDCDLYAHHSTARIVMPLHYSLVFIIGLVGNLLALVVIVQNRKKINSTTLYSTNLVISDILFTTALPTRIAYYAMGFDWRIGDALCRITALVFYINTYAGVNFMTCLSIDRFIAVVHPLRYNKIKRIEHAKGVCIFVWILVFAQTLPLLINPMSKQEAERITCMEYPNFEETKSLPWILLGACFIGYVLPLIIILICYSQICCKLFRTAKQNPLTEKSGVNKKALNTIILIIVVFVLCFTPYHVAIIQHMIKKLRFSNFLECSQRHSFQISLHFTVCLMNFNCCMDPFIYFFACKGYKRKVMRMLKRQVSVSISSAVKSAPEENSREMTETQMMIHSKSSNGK

The assay concerns the target EBI2 (Homo sapiens, UniProt P32249). As to the kind of experiment: Cell-based luminescent assay (EBI2 modulation). Conditions: cell-based luminescence; 7a,25-OHC final assay concentration 80 nM; 60 minutes incubation; read-out: IC50. The method, boiled down:
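Cells plated overnight at 37° C, then exposed to compound at 4-5 uM final with 80 nM 7a,25-OHC agonist for 60 min at 37° C. Luminescence read after 60 min detection at 25° C in the dark; values normalized to neutral and stimulator controls and plate-pattern corrected.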
Consider `O=C(/C=C/c1ccccc1)N1CCN(Cc2cccc(Cl)c2)CC1` [Compound C365, (2E)-1-{4-[(3-chlorophenyl)methyl]piperazinyl}-3-phenylprop-2-en-1-one], for which the negative logarithm of the IC50 (pIC50) is greater than 7.00.

In the case of `O=C(/C=C/c1ccc(Cl)c(Cl)c1)N1CCN(C(c2ccccc2)c2ccccc2)CC1` [Compound C5, (2E)-3-(3,4-dichlorophenyl)-1-[4-(diphenylmethyl)piperazinyl] prop-2-en-1-one], the pIC50 was greater than 7.00.

In the case of `O=C(c1ccc(B(O)O)cc1)N1CCN(C(=O)c2cc3cc(Cl)ccc3[nH]2)CC1` [Compound C409, 4-(4-(5-chloro-1H-indole-2-carbonyl)piperazine-1-carbonyl)phenylboronic acid], the pIC50 is 6.30 to 7.00.

For the compound `O=C(C#Cc1ccc(Cl)cc1)N1CCN(Cc2ccc(Cl)cc2)CC1` [Compound C384, 3-(4-chlorophenyl)-1-{4-[(4-chlorophenyl)methyl]piperazinyl}prop-2-yn-1-one], the pIC50 was greater than 7.00.

Take `O=C(/C=C/c1ccccc1)N1CCN(CCc2ccc(Cl)cc2)CC1` [Compound C270, (2E)-1-{4-[2-(4-chlorophenyl)ethyl]piperazinyl}-3-phenylprop-2-en-1-one]: the pIC50 is greater than 7.00.

On to “6-fluoroindol-2-yl 4-[(4-fluorophenyl)carbonyl]piperazinyl ketone [Compound C425]”, for which the pIC50 was 6.30 to 7.00.

For the compound `CC(C)c1ccc(S(=O)(=O)N2CCN(C(=O)/C=C/c3ccc(F)cc3)CC2)cc1` [Compound C261, (2E)-3-(4-fluorophenyl)-1-(4-{[4-(methylethyl)phenyl]sulfonyl}piperazinyl)prop-2-en-1-one], the pIC50 was greater than 7.00.

Regarding `O=C(c1cc2cc(Cl)ccc2[nH]1)N1CCN(c2ccccn2)CC1` [Compound C182, 5-chloroindol-2-yl 4-(2-pyridyl)piperazinyl ketone], the pIC50 is 5.30 to 6.30.

On to “4-(diphenylmethyl)piperazinyl 5-bromoindol-2-yl ketone [Compound C43]”, for which the pIC50 was greater than 7.00.

In the case of `O=C(c1cc2cc(Cl)ccc2[nH]1)N1CCC(Oc2ccc(C(F)(F)F)cc2)CC1` [Compound C390, 5-chloroindol-2-yl 4-[4-(trifluoromethyl)phenoxy]piperidyl ketone], the negative-log IC50 (pIC50) was 6.30 to 7.00.

`O=C(c1cc2cc(C(F)(F)F)ccc2[nH]1)N1CCN(Cc2ccc(F)cc2)CC1` [Compound C211, 4-[(4-fluorophenyl)methyl]piperazinyl 5-(trifluoromethyl)indol-2-yl ketone]: the pIC50 is greater than 7.00.

As for `O=C(c1ccccc1)N1CCN(C(=O)c2cc3cc(Cl)ccc3[nH]2)CC1` [Compound C243, 5-chloroindol-2-yl 4-(phenylcarbonyl)piperazinyl ketone], the pIC50 is greater than 7.00.

In the case of `O=C(C#Cc1ccc(Cl)c(Cl)c1)N1CCN(Cc2ccc(C(F)(F)F)cc2)CC1` [Compound C171, 3-(3,4-dichlorophenyl)-1-(4-{[4-(trifluoromethyl)phenyl]methyl}piperazinyl)prop-2-yn-1-one], the pIC50 was 5.30 to 6.30.

In the case of `CC(C)(C)c1ccc(S(=O)(=O)N2CCN(C(=O)/C=C/c3ccccc3F)CC2)cc1` [Compound C190, (2E)-1-(4-{[4-(tert-butyl)phenyl]sulfonyl}piperazinyl)-3-(2-fluorophenyl)prop-2-en-1-one], the pIC50 is 5.30 to 6.30.

Turning to `O=C(/C=C/c1ccccc1)N1CCN(Cc2ccccn2)CC1` [Compound C191, (2E)-3-phenyl-1-[4-(2-pyridylmethyl)piperazinyl]prop-2-en-1-one], the pIC50 is 5.30 to 6.30.

As to “3-(2,3-dichlorophenyl)-1-{4-[(4-chlorophenyl)carbonyl]piperazinyl}prop-2-yn-1-one [Compound C30]”, the pIC50 is greater than 7.00.

In the case of “1-{4-[(4-fluorophenyl)carbonyl]piperazinyl}-3-[2-(trifluoromethyl)phenyl]prop-2-yn-1-one [Compound C393]”, the pIC50 is greater than 7.00.

As to `O=C(/C=C/c1ccc(F)cc1)N1CCN(S(=O)(=O)c2ccc(Br)cc2)CC1` [Compound E2, (2E)-1-{4-[(4-bromophenyl)sulfonyl]piperazinyl}-3-(4-fluorophenyl) prop-2-en-1-one], the pIC50 was greater than 7.00.

For the compound `O=C(C#Cc1ccc(F)cc1)N1CCN(C(=O)c2ccc(F)cc2)CC1` [Compound C128, 3-(4-fluorophenyl)-1-{4-[(4-fluorophenyl)carbonyl]piperazinyl}prop-2-yn-1-one], the pIC50 is greater than 7.00.

With “5-chloroindol-2-yl 4-[(4-(3-pyridyl)phenyl)carbonyl]piperazinyl ketone [Compound C254]”, the pIC50 was greater than 7.00.

Take `O=C(c1cc2ccccc2s1)N1CCN(C(c2ccccc2)c2ccccc2)CC1` [Compound C123, benzo[b]thiophen-2-yl 4-(diphenylmethyl)piperazinyl ketone]: the pIC50 is greater than 7.00.

With “(2E)-1-{4-[(2,5-dimethoxyphenyl)sulfonyl]piperazinyl}-3-(4-fluorophenyl)prop-2-en-1-one [Compound C318]”, the pIC50 is greater than 7.00.

As for `COc1ccc(CN2CCN(C(=O)C#Cc3ccc(Br)cc3)CC2)cc1` [Compound C274, 3-(4-bromophenyl)-1-{4-[(4-methoxyphenyl)methyl]piperazinyl}prop-2-yn-1-one], the pIC50 is greater than 7.00.

For the compound `O=C(/C=C/c1ccc(F)cc1)N1CCN(S(=O)(=O)Cc2ccccc2)CC1` [Compound C323, (2E)-3-(4-fluorophenyl)-1-{4-[benzylsulfonyl]piperazinyl}prop-2-en-1-one], the pIC50 was greater than 7.00.

As to `O=C(/C=C/c1ccc(F)cc1)N1CCN(S(=O)(=O)c2ccc(F)cc2)CC1` [Compound C235, (2E)-3-(4-fluorophenyl)-1-{4-[(4-fluorophenyl)sulfonyl]piperazinyl}prop-2-en-1-one], the pIC50 was greater than 7.00.

Consider `O=C(c1cc2cc(Cl)ccc2[nH]1)N1CCN(C(=O)c2cccnc2Cl)CC1` [Compound C285, 4-[(2-chloro(3-pyridyl))carbonyl]piperazinyl 5-chloroindol-2-yl ketone], for which the pIC50 is 6.30 to 7.00.

Turning to `O=C(c1cc[nH]c1)N1CCN(C(=O)c2cc3cc(Cl)ccc3[nH]2)CC1` [Compound C163, 5-chloroindol-2-yl 4-(pyrrol-3-ylcarbonyl)piperazinyl ketone], the pIC50 was 5.30 to 6.30.

For `O=C(C#Cc1ccccc1C(F)(F)F)N1CCN(C(=O)c2ccc(C(F)(F)F)cc2)CC1` [Compound C169, 3-[2-(trifluoromethyl)phenyl]-1-(4-{[4-(trifluoromethyl)phenyl]carbonyl}piperazinyl)prop-2-yn-1-one], the pIC50 was 5.30 to 6.30.

Turning to `Cc1ccccc1/C=C/C(=O)N1CCN(S(=O)(=O)c2ccc(Br)cc2)CC1` [Compound C442, (2E)-1-{4-[(4-bromophenyl)sulfonyl]piperazinyl}-3-(2-methylphenyl)prop-2-en-1-one], the pIC50 was 6.30 to 7.00.

As for “4-{[4-((2E)-3-phenylprop-2-enoyl)piperazinyl]methyl}benzenecarbonitrile [Compound C335]”, the pIC50 was greater than 7.00.

With `Cc1ccc2[nH]c(C(=O)NC3CCN(C(c4ccccc4)c4ccccc4)CC3)cc2c1` [Compound C162, N-[1-(diphenylmethyl)(4-piperidyl)](5-methylindol-2-yl)carboxamide], the pIC50 is 5.30 to 6.30.

Turning to `Cc1cc(F)ccc1OC1CCN(C(=O)c2cc3cc(Cl)ccc3[nH]2)CC1` [Compound C357, 5-chloroindol-2-yl 4-(4-fluoro-2-methylphenoxy)piperidyl ketone], the pIC50 is greater than 7.00.

As for `O=C(C#Cc1cccc(Cl)c1Cl)N1CCN(C(=O)c2ccc(F)cc2)CC1` [Compound C18, 3-(2,3-dichlorophenyl)-1-{4-[(4-fluorophenyl)carbonyl]piperazinyl}prop-2-yn-1-one], the pIC50 was greater than 7.00.

`Cn1c(C(=O)N2CCN(C(c3ccccc3)c3ccccc3)CC2)cc2ccsc21` [Compound C173, 4-(diphenylmethyl)piperazinyl 6-methylthiopheno[3,2-d]pyrrol-5-yl ketone]: the pIC50 is 5.30 to 6.30.

Turning to `Cc1ccc(C#CC(=O)N2CCN(C(=O)c3ccc(C(F)(F)F)cc3)CC2)cc1` [Compound C53, 3-(4-methylphenyl)-1-(4-{[4-(trifluoromethyl)phenyl]carbonyl}piperazinyl)prop-2-yn-1-one], the pIC50 is greater than 7.00.

As for `CCN1CCN(C(=O)c2cc3cc(Cl)ccc3[nH]2)CC1` [Compound C295, 5-chloroindol-2-yl 4-ethylpiperazinyl ketone], the pIC50 is 6.30 to 7.00.

Consider `CC(=O)c1ccc(S(=O)(=O)N2CCN(C(=O)/C=C/c3ccc(Br)cc3F)CC2)cc1` [Compound E5, 4-({4-[(2E)-3-(4-bromo-2-fluorophenyl)prop-2-enoyl]piperazinyl}sulfonyl)-1-acetylbenzene], for which the pIC50 is greater than 7.00.

Take `O=C(/C=C/c1ccc(F)cc1)N1CCN(S(=O)(=O)c2ccc3ccccc3c2)CC1` [Compound C221, (2E)-3-(4-fluorophenyl)-1-[4-(2-naphthylsulfonyl)piperazinyl]prop-2-en-1-one]: the pIC50 is greater than 7.00.

For the compound `Cc1ccc(C#CC(=O)N2CCN(C(=O)c3ccc(Cl)cc3)CC2)cc1` [Compound C33, 1-{4-[(4-chlorophenyl)carbonyl]piperazinyl}-3-(4-methylphenyl)prop-2-yn-1-one], the pIC50 was greater than 7.00.

In the case of `Cc1ccc2[nH]c(C(=O)N3CCN(Cc4ccc(Cl)c(Cl)c4)CC3)cc2c1` [Compound C328, 4-[(3,4-dichlorophenyl)methyl]piperazinyl 5-methylindol-2-yl ketone], the pIC50 is greater than 7.00.

Turning to `O=C(c1cn2ccccc2n1)N1CCN(C(=O)c2cc3cc(Cl)ccc3[nH]2)CC1` [Compound C279, 5-chloroindol-2-yl 4-(4-hydroimidazo[1,2-a]pyridin-2-ylcarbonyl)piperazinyl ketone], the pIC50 is 6.30 to 7.00.

With “benzo[d]furan-2-yl 4-(phenylethyl)piperazinyl ketone [Compound C405]”, the pIC50 was 6.30 to 7.00.

With “4-(diphenylmethyl)piperazinyl 2-naphthyl ketone [Compound C101]”, the pIC50 was greater than 7.00.

The term pIC50 denotes the IC50 on a negative log10 scale, so that one unit is a factor of ten.
